Laboratory results published in ChEMBL document CHEMBL1158204, “Metabolites from an Antarctic sponge-associated bacterium, Pseudomonas aeruginosa” (1996).
Calls of active or inactive are those of the source. No cut-off for these calls is given here.

What was measured:
Type in all cases: functional
Settings in all cases: for MIC: 48 h
Micrococcus luteus = test: Antibacterial activity against Micrococcus luteus after 2 days by disk assay
Bacillus cereus = test: Antibacterial activity against Bacillus cereus after 2 days by disk assay
Staphylococcus aureus = test: Antibacterial activity against Staphylococcus aureus after 2 days by disk assay

Structure (SMILES)	MIC (Micrococcus luteus)	MIC (Bacillus cereus)	MIC (Staphylococcus aureus)	Activity (Micrococcus luteus)	Activity (Bacillus cereus)	Activity (Staphylococcus aureus)
NC(=O)c1cccc2nc3ccccc3nc12	< 5 µg/mL	< 0.5 µg/mL	< 5 µg/mL	–	–	–
CC(C)C[C@@H]1NC(=O)[C@@H]2CCCN2C1=O	–	–	–	inactive	inactive	inactive
CC(C)[C@@H]1NC(=O)[C@@H]2CCCN2C1=O	–	–	–	inactive	inactive	inactive
CC[C@H](C)[C@@H]1NC(=O)[C@@H]2CCCN2C1=O	–	–	–	inactive	inactive	inactive
CSCC[C@@H]1NC(=O)[C@@H]2CCCN2C1=O	–	–	–	inactive	inactive	inactive
O=C(O)c1cccc2nc3ccccc3nc12 [PHENAZINE-1-CARBOXYLIC ACID]	< 5 µg/mL	< 0.5 µg/mL	< 5 µg/mL	–	–	–
O=C1N[C@@H](Cc2ccc(O)cc2)C(=O)N2CCC[C@@H]12	–	–	–	inactive	inactive	inactive
O=C1N[C@@H](Cc2ccccc2)C(=O)N2CCC[C@@H]12	–	–	–	inactive	inactive	inactive
